The results in this text go back to article PMC6119644 (Bioorganic & medicinal chemistry letters, 2018).

Sequence of GOT1 (P17174 whole entry): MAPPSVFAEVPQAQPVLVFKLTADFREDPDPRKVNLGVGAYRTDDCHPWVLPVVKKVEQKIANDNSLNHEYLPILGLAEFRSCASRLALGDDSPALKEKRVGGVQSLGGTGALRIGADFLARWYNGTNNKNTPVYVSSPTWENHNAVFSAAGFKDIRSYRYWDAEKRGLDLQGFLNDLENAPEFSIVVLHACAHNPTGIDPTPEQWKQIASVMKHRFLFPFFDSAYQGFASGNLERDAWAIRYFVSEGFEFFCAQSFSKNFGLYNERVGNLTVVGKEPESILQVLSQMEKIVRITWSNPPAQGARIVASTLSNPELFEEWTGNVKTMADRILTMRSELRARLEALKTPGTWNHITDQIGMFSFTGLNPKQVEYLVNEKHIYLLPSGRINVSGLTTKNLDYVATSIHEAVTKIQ

The first experiment addresses GOT1 (Homo sapiens, UniProt P17174). Put plainly: MDH coupled GOT1 enzymatic assay. It counts as biochemical. Conditions: MDH coupled GOT1 enzymatic assay.
`O=C(Nc1ccccc1)N1CCN(c2cccc3[nH]ncc23)CC1` [Compound 1j]: the “GOT1 inhibition activity (in words)” value is listed as “lack of observed activity”.

Take `O=C(Nc1ccccc1)N1CCN(c2cccc3ncccc23)CC1` [Compound 1k]: the “GOT1 inhibition activity (in words)” value is reported as “lack of observed activity”.

`O=C(NCCc1c[nH]c2ccccc12)Nc1ccccc1` [Compound 3a]: the “GOT1 inhibition activity (in words)” value was “no significant activity”.

Still in this experiment, the particulars now being: relative to 1a; GOT1 inhibition.
On to `O=C(Nc1ccc(Cl)cc1)N1CCN(c2cccc3[nH]ccc23)CC1` [Compound 2c], for which the enhancement in potency is ~ 10 fold.

Turning to `O=C(Nc1ccc(C(F)(F)F)cc1)N1CCN(c2cccc3[nH]ccc23)CC1` [Compound 2d], the enhancement in potency is ~ 10 fold.

`O=C(Nc1cccc(C(F)(F)F)c1)N1CCN(c2cccc3[nH]ccc23)CC1` [Compound 2g]: the enhancement in potency was ~ 10 fold.
